The source made the active and inactive calls.
Legend:
H4 = assay: Luminescence Cell-Based Dose Response HTS to Identify Activators of 5'UTR Stem-Loop Driven Prion Protein mRNA Translation in H4 Neuroglioblastoma Cells. [Related pubchem assays: 1829 (Project Summary), 1814 (Primary HTS)]; type: functional; details: Homo sapiens
[1] = Luminescence Cell-Based Dose Response HTS to Identify Activators of Luciferase Translation or Activity in H4 […] Cells. [Related pubchem assays: 1829 (Project Summary), 1814 (Primary HTS)]; type: functional
H9c2 = assay: cells; type: functional, cell-based; details: Rattus norvegicus, H9c2, Myocardium;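 also: confirmatory concentration-response retest of ultra-high-throughput screening hits for modulation of myocardial damage; cell death induced by hydrogen peroxide oxidative stress; compound pretreatment for 60 min then peroxide exposure for 2 h; potency is for protecting the cells against peroxide damage rather than for killing them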
[2] = Luminescence Cell-Based Dose Confirmation HTS to Identify Activators of 5'UTR Stem-Loop Driven Alpha-Synuclein mRNA Translation in H4 Neuroglioblastoma Cells. [Related pubchem assays: 1829 (Project Summary), 1814 (Primary HTS)]; type: functional
Fatty acid synthase [3] = molecular target: T1, Fatty acid synthase (Homo sapiens, UniProt P49327); assay: inhibition of human FAS-TE enzyme activity – biochemical, endpoint fluorescence intensity, uHTS hits, dose response (AID 624327); type: functional;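 also: fluorescence from hydrolysis of an O-methyl fluorescein acyl ester substrate by the enzyme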
T1 sequence (P49327 whole entry): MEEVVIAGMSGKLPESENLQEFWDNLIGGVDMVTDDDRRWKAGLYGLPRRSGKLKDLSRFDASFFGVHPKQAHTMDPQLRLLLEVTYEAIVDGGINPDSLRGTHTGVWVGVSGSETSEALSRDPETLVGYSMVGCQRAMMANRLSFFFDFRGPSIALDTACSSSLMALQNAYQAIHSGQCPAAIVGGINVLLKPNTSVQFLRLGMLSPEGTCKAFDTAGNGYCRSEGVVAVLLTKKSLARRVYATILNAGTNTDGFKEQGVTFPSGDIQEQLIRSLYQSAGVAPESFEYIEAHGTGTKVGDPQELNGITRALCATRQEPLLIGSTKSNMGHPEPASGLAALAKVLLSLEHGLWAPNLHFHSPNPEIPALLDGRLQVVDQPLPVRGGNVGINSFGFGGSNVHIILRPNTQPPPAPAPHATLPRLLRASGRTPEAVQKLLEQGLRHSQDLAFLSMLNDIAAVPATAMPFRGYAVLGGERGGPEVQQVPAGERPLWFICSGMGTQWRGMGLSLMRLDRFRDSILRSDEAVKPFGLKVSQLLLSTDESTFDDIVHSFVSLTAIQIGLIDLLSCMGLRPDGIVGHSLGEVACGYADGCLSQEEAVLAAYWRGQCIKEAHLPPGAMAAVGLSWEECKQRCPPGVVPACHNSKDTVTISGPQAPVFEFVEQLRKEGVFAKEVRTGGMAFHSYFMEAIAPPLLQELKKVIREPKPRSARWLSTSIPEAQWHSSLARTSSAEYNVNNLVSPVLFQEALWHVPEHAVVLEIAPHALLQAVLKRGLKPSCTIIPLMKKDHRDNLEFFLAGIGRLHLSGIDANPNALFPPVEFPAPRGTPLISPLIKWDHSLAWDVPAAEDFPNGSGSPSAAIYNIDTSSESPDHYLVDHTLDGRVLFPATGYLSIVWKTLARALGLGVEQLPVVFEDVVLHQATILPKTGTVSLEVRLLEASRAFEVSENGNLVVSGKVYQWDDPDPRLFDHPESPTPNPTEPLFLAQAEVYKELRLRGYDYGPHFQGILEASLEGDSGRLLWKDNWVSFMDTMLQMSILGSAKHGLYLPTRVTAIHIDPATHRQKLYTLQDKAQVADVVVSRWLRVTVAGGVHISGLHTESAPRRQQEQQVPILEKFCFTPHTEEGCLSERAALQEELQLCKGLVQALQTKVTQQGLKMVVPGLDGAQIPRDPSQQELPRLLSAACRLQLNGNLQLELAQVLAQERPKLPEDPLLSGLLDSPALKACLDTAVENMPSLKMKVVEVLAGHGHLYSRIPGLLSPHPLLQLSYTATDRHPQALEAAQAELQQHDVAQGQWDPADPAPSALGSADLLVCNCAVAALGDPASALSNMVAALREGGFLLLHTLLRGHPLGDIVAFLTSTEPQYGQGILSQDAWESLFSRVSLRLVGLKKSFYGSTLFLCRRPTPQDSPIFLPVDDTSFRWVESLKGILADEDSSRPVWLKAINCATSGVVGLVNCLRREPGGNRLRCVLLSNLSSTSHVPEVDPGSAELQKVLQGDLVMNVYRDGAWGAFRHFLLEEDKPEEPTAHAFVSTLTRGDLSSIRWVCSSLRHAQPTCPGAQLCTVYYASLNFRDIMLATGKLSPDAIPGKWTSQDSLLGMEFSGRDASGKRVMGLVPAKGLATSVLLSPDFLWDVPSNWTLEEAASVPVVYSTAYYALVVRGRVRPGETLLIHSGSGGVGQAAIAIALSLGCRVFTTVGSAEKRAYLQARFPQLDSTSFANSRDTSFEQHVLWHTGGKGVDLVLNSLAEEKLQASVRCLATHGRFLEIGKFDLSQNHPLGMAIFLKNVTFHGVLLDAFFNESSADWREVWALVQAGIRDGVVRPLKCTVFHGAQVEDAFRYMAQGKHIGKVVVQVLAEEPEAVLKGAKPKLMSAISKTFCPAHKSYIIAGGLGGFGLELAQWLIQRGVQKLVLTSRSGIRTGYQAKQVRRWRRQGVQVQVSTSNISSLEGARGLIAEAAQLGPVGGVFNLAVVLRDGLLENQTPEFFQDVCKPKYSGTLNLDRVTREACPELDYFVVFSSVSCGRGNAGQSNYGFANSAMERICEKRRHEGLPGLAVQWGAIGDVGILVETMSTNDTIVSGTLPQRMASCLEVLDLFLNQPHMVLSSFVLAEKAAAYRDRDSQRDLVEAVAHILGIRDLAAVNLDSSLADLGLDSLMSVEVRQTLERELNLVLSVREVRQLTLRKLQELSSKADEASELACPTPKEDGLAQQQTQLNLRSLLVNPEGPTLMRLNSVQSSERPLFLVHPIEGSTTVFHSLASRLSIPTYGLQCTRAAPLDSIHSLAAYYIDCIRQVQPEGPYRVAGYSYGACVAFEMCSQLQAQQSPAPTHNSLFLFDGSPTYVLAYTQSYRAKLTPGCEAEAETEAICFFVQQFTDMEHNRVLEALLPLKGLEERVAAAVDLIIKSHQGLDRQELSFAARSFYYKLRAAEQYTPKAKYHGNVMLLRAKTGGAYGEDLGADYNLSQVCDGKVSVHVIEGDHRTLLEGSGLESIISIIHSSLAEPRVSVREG

[4] = system: Streptococcus sp. 'group A'; assay: Streptococcus pyogenes SK(-)GAS viability under kanamycin – luminescence, BacTiterGlo, confirmation, counter-screen for streptokinase expression inhibitor project, dose response (AID 1900); type: functional, organism-based
Fatty acid synthase [5] = molecular target: T1, Fatty acid synthase; assay: inhibition of human FAS-TE enzyme activity – biochemical, kinetic fluorescence intensity, dose response (AID 624326); type: functional;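 also: rate of fluorescence rise from hydrolysis of a fluorogenic O-methyl fluorescein ester substrate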
Streptococcus = assay: GAS UMAA2166 growth inhibition – luminescence, BacTiterGlo, counter-screen for streptokinase expression inhibitor project, dose response (AID 1915); type: functional, organism-based;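 also: potency for reduction of bacterial viability or growth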
Streptokinase A = molecular target: T2, Streptokinase A (Streptococcus pyogenes serotype M1, UniProt P10520); assay: viability-normalized secreted streptokinase activity reduction – plasminogen activation absorbance, OD405, dose response (AID 1914); type: functional, Streptococcus pyogenes M1 GAS;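 also: secreted streptokinase activity via plasminogen activation per viability signal from cell pellet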
T2 sequence (P10520 whole entry): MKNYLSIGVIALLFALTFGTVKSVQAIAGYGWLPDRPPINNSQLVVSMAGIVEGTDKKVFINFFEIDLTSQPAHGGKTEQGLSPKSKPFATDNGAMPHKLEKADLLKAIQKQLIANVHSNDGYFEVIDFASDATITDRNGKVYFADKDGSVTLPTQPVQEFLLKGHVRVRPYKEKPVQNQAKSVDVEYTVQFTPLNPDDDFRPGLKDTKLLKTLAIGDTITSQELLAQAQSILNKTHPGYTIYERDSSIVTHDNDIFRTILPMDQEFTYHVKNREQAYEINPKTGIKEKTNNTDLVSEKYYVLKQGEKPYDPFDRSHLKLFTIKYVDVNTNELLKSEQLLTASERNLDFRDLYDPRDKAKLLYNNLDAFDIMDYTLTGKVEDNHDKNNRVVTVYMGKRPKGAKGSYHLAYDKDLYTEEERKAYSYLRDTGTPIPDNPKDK

[6] = molecular target: T3, Polyadenylate-binding protein 1 (Homo sapiens, UniProt P11940); assay: MLLE binding blockers, Cy5 peptide tracer – biochemical, fluorescence polarization, Cy5-PAM2 peptide, secondary, miRNA deadenylation inhibitor project, dose response (AID 602260); type: functional; details: read-out: IC50_Mean
T3 sequence (P11940 whole entry, the tested form may be a part): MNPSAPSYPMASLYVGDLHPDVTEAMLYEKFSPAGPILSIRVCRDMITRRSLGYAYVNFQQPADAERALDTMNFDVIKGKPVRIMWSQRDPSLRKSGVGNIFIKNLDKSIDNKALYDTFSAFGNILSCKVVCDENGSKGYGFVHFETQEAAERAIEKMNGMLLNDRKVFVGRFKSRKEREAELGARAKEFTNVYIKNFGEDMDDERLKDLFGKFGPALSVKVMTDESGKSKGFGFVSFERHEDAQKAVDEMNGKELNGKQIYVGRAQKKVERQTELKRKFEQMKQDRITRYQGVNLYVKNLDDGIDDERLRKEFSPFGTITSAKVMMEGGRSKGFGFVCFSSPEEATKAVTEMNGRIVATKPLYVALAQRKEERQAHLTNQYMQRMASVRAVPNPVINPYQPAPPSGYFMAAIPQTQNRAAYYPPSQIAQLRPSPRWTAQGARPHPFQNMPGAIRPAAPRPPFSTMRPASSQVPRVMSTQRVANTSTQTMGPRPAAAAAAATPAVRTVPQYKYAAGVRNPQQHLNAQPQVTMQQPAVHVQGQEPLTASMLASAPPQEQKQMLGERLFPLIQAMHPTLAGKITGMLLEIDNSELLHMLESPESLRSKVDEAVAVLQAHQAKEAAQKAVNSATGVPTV

[7] = molecular target: T3, Polyadenylate-binding protein 1; assay: MLLE domain peptide-binding blockers, IC50 – biochemical, fluorescence polarization, FITC-PAM2 peptide, dose response (AID 602259); type: functional; details: read-out: IC50_Mean
[8] = Luminescence Cell-Based Dose Confirmation HTS to Identify Inhibitors of Platelet Dense Granule Release. [Related pubchem assays: 1663 (Primary HTS), 1678 (Summary of Project)]; type: functional
[9] = molecular target: Luciferin 4-monooxygenase (Photinus pyralis, UniProt P08659); assay: inhibition of purified Photinus pyralis luciferase – biochemical, luminescence, dose response (AID 1891)
Luciferin 4-monooxygenase, sequence (P08659 whole entry): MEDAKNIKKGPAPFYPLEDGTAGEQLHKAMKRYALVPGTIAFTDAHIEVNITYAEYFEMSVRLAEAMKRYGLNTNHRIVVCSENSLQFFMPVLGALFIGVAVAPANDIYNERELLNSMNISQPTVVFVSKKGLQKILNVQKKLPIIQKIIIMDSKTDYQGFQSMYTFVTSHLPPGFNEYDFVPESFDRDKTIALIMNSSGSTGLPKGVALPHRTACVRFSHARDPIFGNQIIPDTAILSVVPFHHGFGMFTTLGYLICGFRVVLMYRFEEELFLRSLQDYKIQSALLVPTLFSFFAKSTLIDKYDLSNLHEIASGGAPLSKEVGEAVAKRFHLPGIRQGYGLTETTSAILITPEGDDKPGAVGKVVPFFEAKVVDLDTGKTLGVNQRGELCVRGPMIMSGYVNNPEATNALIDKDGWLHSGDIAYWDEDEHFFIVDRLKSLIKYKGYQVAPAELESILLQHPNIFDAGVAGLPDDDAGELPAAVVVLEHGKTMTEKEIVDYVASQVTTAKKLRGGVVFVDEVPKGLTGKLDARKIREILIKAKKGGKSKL

Protein skinhead-1 = molecular target: T4, Protein skinhead-1 (Caenorhabditis elegans, UniProt P34707); type: functional
T4 sequence (P34707 whole entry): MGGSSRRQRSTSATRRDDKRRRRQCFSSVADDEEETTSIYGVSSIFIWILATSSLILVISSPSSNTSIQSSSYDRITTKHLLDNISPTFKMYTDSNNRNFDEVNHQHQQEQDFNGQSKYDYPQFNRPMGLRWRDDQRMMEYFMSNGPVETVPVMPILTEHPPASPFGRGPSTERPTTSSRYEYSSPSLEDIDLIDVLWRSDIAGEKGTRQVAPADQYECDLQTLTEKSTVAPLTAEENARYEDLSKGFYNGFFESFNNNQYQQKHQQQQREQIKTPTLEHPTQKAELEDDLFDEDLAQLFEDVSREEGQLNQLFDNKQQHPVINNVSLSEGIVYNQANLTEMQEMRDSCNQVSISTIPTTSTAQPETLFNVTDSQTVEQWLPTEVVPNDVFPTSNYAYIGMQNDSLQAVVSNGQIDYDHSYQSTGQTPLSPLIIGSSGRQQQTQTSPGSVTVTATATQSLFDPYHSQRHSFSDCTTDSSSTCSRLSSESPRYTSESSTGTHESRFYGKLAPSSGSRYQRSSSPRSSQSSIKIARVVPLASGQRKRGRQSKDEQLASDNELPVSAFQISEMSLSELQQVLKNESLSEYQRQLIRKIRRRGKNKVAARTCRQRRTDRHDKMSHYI

[10] = molecular target: T5, Corticotropin-releasing factor receptor 2/Corticotropin-releasing factor-binding protein (Homo sapiens, UniProt P24387+Q13324); assay: activators of CRF receptor 2 with binding protein – uHTS hits, confirmation (AID 602473); type: functional; details: read-out: EC50_Mean
T5 sequence (Q13324 whole entry): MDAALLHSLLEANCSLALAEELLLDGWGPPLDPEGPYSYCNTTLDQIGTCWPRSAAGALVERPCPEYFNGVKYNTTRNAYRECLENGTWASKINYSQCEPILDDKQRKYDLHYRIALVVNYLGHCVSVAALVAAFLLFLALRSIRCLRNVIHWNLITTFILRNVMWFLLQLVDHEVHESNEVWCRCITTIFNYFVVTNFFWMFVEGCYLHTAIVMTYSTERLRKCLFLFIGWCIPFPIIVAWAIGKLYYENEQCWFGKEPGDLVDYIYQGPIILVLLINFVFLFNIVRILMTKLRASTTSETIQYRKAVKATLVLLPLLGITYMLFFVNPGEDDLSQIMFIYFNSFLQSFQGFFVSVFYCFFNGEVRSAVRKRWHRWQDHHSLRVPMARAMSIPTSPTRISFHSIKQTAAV
T5 sequence (P24387 whole entry): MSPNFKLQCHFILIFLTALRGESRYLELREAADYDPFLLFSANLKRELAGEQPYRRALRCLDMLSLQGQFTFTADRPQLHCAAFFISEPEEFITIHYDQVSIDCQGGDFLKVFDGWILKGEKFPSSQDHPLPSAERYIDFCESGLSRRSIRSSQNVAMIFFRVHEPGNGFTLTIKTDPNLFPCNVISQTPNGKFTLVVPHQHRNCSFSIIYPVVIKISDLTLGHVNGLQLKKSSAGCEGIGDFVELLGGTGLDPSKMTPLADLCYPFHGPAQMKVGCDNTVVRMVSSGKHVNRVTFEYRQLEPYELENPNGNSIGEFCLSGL

Question: For CCC(=O)Oc1cccc(C(=O)Nc2ccc(-c3nnc(-c4ccco4)o3)cc2)c1, which EC50 (H4) is on record?
Answer: The EC50 was 6.33 µM (active).

Question: And the EC50 [1]?
Answer: The EC50 was > 120 µM (not active).

Question: What about the IC50 (H9c2) of the same compound?
Answer: The IC50 was 22.7 µM (active).

Question: What about the EC50 [2] of the same compound?
Answer: The EC50 was 3.89 µM (active).

Question: Which IC50 (Fatty acid synthase [3]) does the source give for O=[N+]([O-])c1ccc(NCc2ccc(Cl)cc2)c2ccncc12 here?
Answer: Its IC50 is 3.17 µM (active).

Question: And the EC50 [4]?
Answer: Its EC50 is 32.3 µM (active).

Question: What about the IC50 (Fatty acid synthase [5]) of the same compound?
Answer: The IC50 was 3.75 µM (active).

Question: And the EC50 (Streptococcus)?
Answer: Its EC50 is > 150 µM (not active).

Question: What about the EC50 (Streptokinase A) of the same compound?
Answer: Its EC50 is 15.1 µM (active).

Question: Which results are given for COc1cc2ncc(S(=O)(=O)c3ccccc3)c(N3CCC4(CC3)OCCO4)c2cc1OC?
Answer: IC50 (Fatty acid synthase [3]): 2.55 µM (active); IC50 (Fatty acid synthase [5]): 1.59 µM (active)

Question: For CC(NC(=O)COC(=O)c1cc([N+](=O)[O-])ccc1N1CCOCC1)c1ccccc1 (configuration not stated), which IC50 (Fatty acid synthase [3]) is on record?
Answer: The IC50 was 4.64 µM (active).

Question: What about the IC50 (Fatty acid synthase [5]) of the same compound?
Answer: Its IC50 is 2.93 µM (active).

Question: Which IC50 (Fatty acid synthase [3]) does the source give for CN(C)S(=O)(=O)c1cccc(NC(=O)c2cc([N+](=O)[O-])ccc2N2CCCCC2)c1 here?
Answer: Its IC50 is 13.1 µM (active).

Question: And the IC50 (Fatty acid synthase [5])?
Answer: The IC50 was 12.2 µM (active).

Question: Which IC50 (Fatty acid synthase [3]) does the source give for COc1ccc(N2C(=O)NC3CC2(C)Oc2ccc(Br)cc23)cc1OC (configuration not stated) here?
Answer: Its IC50 is 4.93 µM (active).

Question: What about the IC50 (Fatty acid synthase [5]) of the same compound?
Answer: Its IC50 is 5.33 µM (active).

Question: Which results are given for O=C(CN1C(=O)S/C(=C/c2ccncc2)C1=O)N1CCOCC1?
Answer: IC50 [6]: > 66 µM (inactive); IC50 [7]: > 66 µM (inactive)

Question: For O=C(NCCc1cccc(Cl)c1)c1ccc(Cl)c([N+](=O)[O-])c1, which IC50 (Fatty acid synthase [3]) is on record?
Answer: The IC50 was 9.28 µM (active).

Question: And the IC50 (Fatty acid synthase [5])?
Answer: The IC50 was 9.95 µM (active).

Question: With Cc1onc(-c2c(F)cccc2Cl)c1C(=O)NC(=S)NC1CCS(=O)(=O)C1 (configuration not stated) as the compound, how does the IC50 [6] read?
Answer: Its IC50 is > 66 µM (inactive).

Question: What about the IC50 [7] of the same compound?
Answer: Its IC50 is > 66 µM (inactive).

Question: With COc1ccc(C2(CNC(=O)c3cccc([N+](=O)[O-])c3)CCCCC2)cc1OC as the compound, how does the IC50 (Fatty acid synthase [3]) read?
Answer: Its IC50 is 14.9 µM (active).

Question: What about the IC50 (Fatty acid synthase [5]) of the same compound?
Answer: The IC50 was 10.2 µM (active).

Question: Which results are given for COc1ccc(C(=O)NCc2ccc3c(c2)cc(C)n3C)cc1?
Answer: EC50 [8]: > 112 µM (not active); IC50 [6]: > 66 µM (inactive); IC50 [7]: > 66 µM (inactive); EC50 [9]: > 112 µM (not active); IC50 (Protein skinhead-1): > 100 µM (inactive)

Question: Which IC50 [6] does the source give for COC(=O)CSc1[nH]c2ccccc2c1[N+](=O)[O-] here?
Answer: The IC50 was > 66 µM (inactive).

Question: What about the IC50 [7] of the same compound?
Answer: Its IC50 is > 66 µM (inactive).

Question: Which IC50 [6] does the source give for COc1nccnc1NS(=O)(=O)c1ccc(NC(=S)NC(=O)/C=C/c2ccccc2)cc1 here?
Answer: The IC50 was > 66 µM (inactive).

Question: And the IC50 [7]?
Answer: The IC50 was > 66 µM (inactive).

Question: For c1cc2c3c(cccc3c1)NC1(CCCC1)N2, which IC50 [6] is on record?
Answer: Its IC50 is > 66 µM (inactive).

Question: What about the IC50 [7] of the same compound?
Answer: Its IC50 is > 66 µM (inactive).

Question: Which results are given for CCCCN1CC(COCc2ccccc2)Oc2cccc(OCCN3C(=O)[C@@H]4[C@H](C3=O)C3C=C[C@H]4C3)c2S1(=O)=O (some centres not stated)?
Answer: IC50 (H9c2): > 79 µM (inactive); EC50 [10]: 5.15 µM (active)

Question: With CSc1nsc(NN)n1 as the compound, how does the IC50 [6] read?
Answer: Its IC50 is > 66 µM (inactive).

Question: What about the IC50 [7] of the same compound?
Answer: Its IC50 is > 66 µM (inactive).

Question: Which IC50 (Fatty acid synthase [3]) does the source give for Cc1cc(Cl)ccc1NC(=O)CCC(=O)N/N=C/c1cc([N+](=O)[O-])ccc1O here?
Answer: Its IC50 is 12.8 µM (active).

Question: What about the IC50 (Fatty acid synthase [5]) of the same compound?
Answer: Its IC50 is 8.57 µM (active).

— ChEMBL document CHEMBL1201862, “PubChem BioAssay data set” (2004)
